From PMC11675717, “Evolutionary Adaptations in Biliverdin Reductase B: Insights into Coenzyme Dynamics and Catalytic Efficiency” (International Journal of Molecular Sciences, 2024) come the findings set out here.

Changes are numbered by the printed parent chain. Read-outs that look alike come from different tables or passages of the source.

Assay [1] deals with T1, human BLVRB (Homo sapiens, UniProt P30043, T164S).
T1 construct: pET21
T1 sequence (P30043 2-206 T164S): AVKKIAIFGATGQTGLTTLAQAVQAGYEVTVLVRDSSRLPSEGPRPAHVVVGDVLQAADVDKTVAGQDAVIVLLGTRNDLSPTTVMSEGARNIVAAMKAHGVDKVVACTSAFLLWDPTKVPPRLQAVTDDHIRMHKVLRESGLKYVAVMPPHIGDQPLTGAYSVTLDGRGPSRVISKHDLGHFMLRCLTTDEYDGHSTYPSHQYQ
The experiment in a line: isothermal titration calorimetry. Type of assay: binding. The source says: (§1) isothermal titration calorimetry on human BLVRB

Assay [2] has as its target T2, human BLVRB (Homo sapiens, UniProt P30043).
T2 construct: pET21
T2 sequence (P30043 2-206): T1 sequence (P30043 2-206 T164S) with S163T
The experiment in a line: isothermal titration calorimetry. Type of assay: binding.
Source text: as §1
(In general: Isothermal titration calorimetry measures the heat released or taken up as one component is titrated into another.)

Assay [3] has as its target T2, human BLVRB. Description: NMR titration ([…]-HSQC). To be noted: bis-tris pH 6.5; weak binding.
The target in the next assay is T3, Aedes aegypti BLVRB (Aedes aegypti, UniProt Q16FC8).
T3 construct: gene 5565330
T3 sequence (Q16FC8 1-205): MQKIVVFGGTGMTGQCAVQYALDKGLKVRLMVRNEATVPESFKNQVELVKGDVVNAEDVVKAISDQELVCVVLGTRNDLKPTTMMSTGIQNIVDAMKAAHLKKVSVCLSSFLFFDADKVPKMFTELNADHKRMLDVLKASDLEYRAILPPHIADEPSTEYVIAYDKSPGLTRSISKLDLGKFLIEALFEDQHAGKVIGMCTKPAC
The experiment in a line: NMR spectra ([…]-HSQC) apo versus NADP+. It is filed as binding. As to conditions: complex unstable over hours at room temperature.

The next assay addresses T4, hyrax BLVRB.
T4 construct: pET21
The experiment in a line: NMR titration ([…]-HSQC). Set-up: species or system Procavia capensis. To be noted: holo form, bis-tris pH 6.5, 20 °C, 900 MHz.

Assay [4] concerns the target T2, human BLVRB. The experiment in a line: NMR titration ([…]-HSQC). Type of assay: binding.

Regarding `NC(=O)C1=CN([C@@H]2O[C@H](COP(=O)(O)OP(=O)(O)OC[C@H]3O[C@@H](n4cnc5c(N)ncnc54)[C@H](OP(=O)(O)O)[C@@H]3O)[C@@H](O)[C@H]2O)C=CC1` [NADPH], the Kd at human BLVRB [1] (read-out: Kd (nM) with NADPH) is 110 ± 10 nM; at human BLVRB [2] (read-out: Kd (nM) with NADPH) it was 130 ± 10 nM.

Consider `C=CC1=C(C)/C(=C/c2[nH]c(Cc3[nH]c(/C=C4\NC(=O)C(C)=C4C=C)c(C)c3CCC(=O)O)c(CCC(=O)O)c2C)NC1=O` [BR-α], for which the binding affinity result on human BLVRB [3] is recorded as “a titration of human BLVRB with BR-α revealed an expected weak binding affinity”.

On to `NC(=O)c1ccc[n+]([C@@H]2O[C@H](COP(=O)(O)OP(=O)(O)OC[C@H]3O[C@@H](n4cnc5c(N)ncnc54)[C@H](OP(=O)(O)O)[C@@H]3O)[C@@H](O)[C@H]2O)c1` [NADP^+], for which the Kd amounted to 130 ± 10 nM at human BLVRB [1] (read-out: Kd (nM) with NADP^+) and 190 ± 5 nM at human BLVRB [2] (read-out: Kd (nM) with NADP^+). Also, the “NMR spectra (15N-HSQC) apo versus NADP+” value on Aedes aegypti BLVRB was “gave rise to good dispersion upon NADP^+ binding”.

With `Cc1cc2nc3c(=O)[nH]c(=O)nc-3n(C[C@H](O)[C@H](O)[C@H](O)COP(=O)(O)OP(=O)(O)OC[C@H]3O[C@@H](n4cnc5c(N)ncnc54)[C@H](O)[C@@H]3O)c2cc1C` [FAD], the Kd amounted to 496 ± 22.6 µM at hyrax BLVRB (read-out: Kd) and 283 ± 13.5 µM at human BLVRB [4] (read-out: Kd).

Take `C=CC1=C(C)/C(=C/c2[nH]c(Cc3[nH]c(/C=C4\NC(=O)C(C)=C4CCC(=O)O)c(CCC(=O)O)c3C)c(C)c2C=C)NC1=O` (mixture of isomers) [bilirubin-β]: the Kd is 19.5 ± 7.4 µM on hyrax BLVRB (NADP+ 1 mM, read-out: binding affinity) and 26.8 ± 9.1 µM on human BLVRB [4] (read-out: binding affinity).
